Measured values taken from ChEMBL document CHEMBL1142793, “Lead optimization of 4-(dimethylamino)quinazolines, potent and selective antagonists for the melanin-concentrating hormone receptor 1” (Bioorg Med Chem Lett, 2005).

Legend:
[1] = target: T1, Alpha-2A adrenergic receptor (Homo sapiens, UniProt P08913); test: Inhibitory activity against alpha-2A adrenergic receptor by using [3H]MK-912 as radioligand expressed in COS-1 cells; assay type: cell-based
T1 sequence (P08913 whole entry): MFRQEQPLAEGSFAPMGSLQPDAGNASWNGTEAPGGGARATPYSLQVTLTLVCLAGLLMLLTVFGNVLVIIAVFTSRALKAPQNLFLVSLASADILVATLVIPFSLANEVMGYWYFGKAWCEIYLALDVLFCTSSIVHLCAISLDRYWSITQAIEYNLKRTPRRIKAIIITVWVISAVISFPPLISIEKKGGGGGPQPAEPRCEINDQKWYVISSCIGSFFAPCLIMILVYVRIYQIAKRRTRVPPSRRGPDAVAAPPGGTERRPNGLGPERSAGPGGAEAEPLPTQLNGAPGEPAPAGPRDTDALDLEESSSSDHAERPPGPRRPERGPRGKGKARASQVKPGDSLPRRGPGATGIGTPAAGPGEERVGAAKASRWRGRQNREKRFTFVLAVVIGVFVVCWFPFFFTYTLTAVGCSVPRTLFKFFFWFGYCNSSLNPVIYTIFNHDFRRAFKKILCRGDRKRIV

[2] = target: Melanin-concentrating hormone receptor 1 (Homo sapiens, UniProt Q99705); test: Inhibitory activity against human CA-MCH-R1 (Melanin-concentrating hormone receptor 1) by using [125I](Phe13,Tyr19)MCH as radioligand expressed in HEK293 cells; assay type: cell-based
Melanin-concentrating hormone receptor 1, sequence (Q99705 whole entry): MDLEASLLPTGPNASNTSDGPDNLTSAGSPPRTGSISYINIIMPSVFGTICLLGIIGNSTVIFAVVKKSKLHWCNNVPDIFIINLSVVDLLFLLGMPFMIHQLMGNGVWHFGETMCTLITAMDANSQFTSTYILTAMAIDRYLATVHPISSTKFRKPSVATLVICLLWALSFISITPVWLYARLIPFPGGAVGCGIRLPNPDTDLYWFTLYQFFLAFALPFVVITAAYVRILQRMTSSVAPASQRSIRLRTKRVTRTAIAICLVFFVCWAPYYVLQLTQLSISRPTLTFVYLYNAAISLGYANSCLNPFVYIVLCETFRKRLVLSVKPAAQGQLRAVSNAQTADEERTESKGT

Homo sapiens = species: Homo sapiens; test: Selective ratio against Alpha2A adrenergic receptor to that of MCH
[3] = target: T2, Neuropeptide Y receptor type 5 (Homo sapiens, UniProt Q15761); test: Inhibitory activity against neuropeptide Y receptor type 5 by using [125I]PYY as radioligand expressed in COS-1 cells; assay type: cell-based
T2 sequence (Q15761 whole entry): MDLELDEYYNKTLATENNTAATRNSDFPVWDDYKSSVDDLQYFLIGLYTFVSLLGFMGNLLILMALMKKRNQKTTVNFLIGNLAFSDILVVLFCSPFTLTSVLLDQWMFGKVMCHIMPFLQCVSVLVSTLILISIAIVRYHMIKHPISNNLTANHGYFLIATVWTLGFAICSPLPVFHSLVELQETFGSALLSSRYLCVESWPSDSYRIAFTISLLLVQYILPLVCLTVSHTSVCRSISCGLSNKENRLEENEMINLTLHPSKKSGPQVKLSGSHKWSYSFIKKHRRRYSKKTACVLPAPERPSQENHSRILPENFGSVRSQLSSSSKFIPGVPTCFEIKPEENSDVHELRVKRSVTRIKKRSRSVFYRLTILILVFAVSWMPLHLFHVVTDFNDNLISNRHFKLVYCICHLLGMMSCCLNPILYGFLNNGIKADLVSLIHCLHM

| Compound | IC50 [1] | IC50 [2] | Selectivity (Homo sapiens) | IC50 [3] |
| --- | --- | --- | --- | --- |
| CN(C)c1nc(NCC2CCC(CNCc3ccc(Br)cc3OC(F)(F)F)CC2)nc2ccccc12 (stereo unspecified) | 31 nM | 960 nM | – | 560 nM |
| CN(Cc1ccc(Br)cc1OC(F)(F)F)CC1CCC(CNc2nc(N(C)C)c3ccccc3n2)CC1 (stereo unspecified) | 44 nM | 5600 nM | – | > 1000 nM |
| CN(C)c1nc(NC[C@H]2CC[C@H](CNS(=O)(=O)c3ccc(Br)cc3OC(F)(F)F)CC2)nc2ccccc12 | 7.7 nM | 160 nM | – | 2.7 nM |
| CN(C)c1nc(N[C@H]2CC[C@@H](NS(=O)(=O)c3ccc(Br)cc3OC(F)(F)F)CC2)nc2ccccc12 | 57 nM | 83 nM | – | 880 nM |
| CN(C)c1nc(NC2CCN(Cc3ccc(Br)cc3OC(F)(F)F)CC2)nc2ccccc12 | 520 nM | 320 nM | – | > 1000 nM |
| CN(C)c1nc(NC2CCN(C(=O)c3ccc(Br)cc3OC(F)(F)F)CC2)nc2ccccc12 | – | 1200 nM | – | – |
| CN(C)c1nc(NC2CCC(NCc3ccc(Br)cc3OC(F)(F)F)CC2)nc2ccccc12 (stereo unspecified) | 170 nM | 35 nM | – | > 1000 nM |
| CN(C)c1nc(NC2CCC(NC(=O)c3ccc(Br)cc3OC(F)(F)F)CC2)nc2ccccc12 (cis isomer) | 390 nM | 160 nM | 2.4 | > 1000 nM |
| CN(C)c1nc(N[C@H]2CC[C@@H](NC(=O)c3cccc(C(F)(F)F)c3)CC2)nc2ccccc12 | 60 nM | 15 nM | 4 | – |
| CN(C)c1nc(NCC2CCC(CNC(=O)c3ccc(Br)cc3OC(F)(F)F)CC2)nc2ccccc12 (stereo unspecified) | 9.9 nM | 1500 nM | – | 470 nM |
| CN(C)c1nc(N[C@H]2CC[C@@H](CNS(=O)(=O)c3ccc(Br)cc3OC(F)(F)F)CC2)nc2ccccc12 | 130 nM | 140 nM | – | 120 nM |
| CN(C)c1nc(NCC2CCC(CN(C)S(=O)(=O)c3ccc(Br)cc3OC(F)(F)F)CC2)nc2ccccc12 (stereo unspecified) | 34 nM | 5800 nM | – | 460 nM |
| CN(C)c1nc(NC2CCN(S(=O)(=O)c3ccc(Br)cc3OC(F)(F)F)CC2)nc2ccccc12 | 170 nM | 250 nM | – | – |
| CN(C)c1nc(N[C@H]2CC[C@@H](NC(=O)c3ccc(F)c(F)c3F)CC2)nc2ccccc12 | 200 nM | 38 nM | 5.3 | – |
| CN(C)c1nc(NC2CCC(CNC(=O)c3ccc(Br)cc3OC(F)(F)F)CC2)nc2ccccc12 (cis isomer) | 570 nM | 79 nM | – | 1800 nM |
| CN(C)c1nc(N[C@H]2CC[C@@H](NC(=O)c3ccc(F)c(F)c3)CC2)nc2ccccc12 | 260 nM | – | – | 2700 nM |
| CN(C)c1nc(N[C@H]2CC[C@@H](NC(=O)c3ccccc3F)CC2)nc2ccccc12 | – | 170 nM | – | – |

Further lines, results first:

| IC50 [1] | IC50 [2] | Selectivity (Homo sapiens) | IC50 [3] | Compound |
| --- | --- | --- | --- | --- |
| 71 nM | 2 nM | 36 | – | COc1cc(OC)cc(C(=O)N[C@H]2CC[C@@H](Nc3nc(N(C)C)c4ccccc4n3)CC2)c1 |
| 360 nM | 4.9 nM | – | 2400 nM | CN(C)c1nc(NC2CCC(CNCc3ccc(Br)cc3OC(F)(F)F)CC2)nc2ccccc12 (cis isomer) |
| 110 nM | 4.6 nM | 24 | – | Cc1cccc(C(=O)N[C@H]2CC[C@@H](Nc3nc(N(C)C)c4ccccc4n3)CC2)c1 |
| 130 nM | 9.5 nM | 14 | – | CN(C)c1nc(N[C@H]2CC[C@@H](NC(=O)c3cccc(F)c3)CC2)nc2ccccc12 |
| 97 nM | 6.8 nM | 14 | – | CN(C)c1nc(N[C@H]2CC[C@@H](NC(=O)c3cccc([N+](=O)[O-])c3)CC2)nc2ccccc12 |
| 63 nM | 5.9 nM | 11 | – | CN(C)c1nc(N[C@H]2CC[C@@H](NC(=O)c3cccc(Br)c3)CC2)nc2ccccc12 |
| 150 nM | 9.4 nM | 16 | – | CN(C)c1nc(N[C@H]2CC[C@@H](NC(=O)c3ccc(F)cc3)CC2)nc2ccccc12 |
| 150 nM | 10 nM | 15 | – | CN(C)c1nc(N[C@H]2CC[C@@H](NC(=O)c3cccc(C#N)c3)CC2)nc2ccccc12 |
| 47 nM | 5 nM | 9.4 | – | CN(C)c1nc(N[C@H]2CC[C@@H](NC(=O)c3ccc(Cl)c(Cl)c3)CC2)nc2ccccc12 |
| 76 nM | 4.5 nM | 17 | – | CN(C)c1nc(N[C@H]2CC[C@@H](NC(=O)c3cccc(Cl)c3)CC2)nc2ccccc12 |
